Tests used:
[1] = Cellulase-mediated CNF support scaffold degradation (rheology); details: range of cellulase concentrations, 0.5 wt % CNF, over time
Experimental: For measurements of cellulase-mediated CNF support scaffold degradation, cellulase (Sigma) was dissolved in DMEM/F12 (Gibco) and added atop 0.5 wt % CNF in a 1:4 ratio by volume to approximate the ratio of media to CNF support within the bioprinting chip. All samples were incubated in a humidified 37° C. incubator for three days. Depending on the downstream measurement, cellulase solutions, as well as non-cellulase containing DMEM/F12 controls, were either changed every day or allowed to incubate over the full three days without a media change.
Viscosity and storage moduli were obtained with an AR-G2 (TA Instruments) stress-controlled rheometer (20 mm 1° cone and plate geometry with a 28 μm gap). To observe the effect of cellulase on the viscosity of CNF over 72 hours, samples were loaded onto the stage at 37° C. for a 5 min time sweep with 1% oscillatory strain and 1 rad/s angular frequency. This was followed by a frequency sweep from 0.1 to 100 Hz at 1% strain. To measure the storage modulus, samples were loaded onto the stage at 2 hours, 4 hours, 6 hours, 24 hours, 48 hours, and 72 hours and subjected to a frequency sweep at 1 rad/s angular frequency.

neural organoids [2] = assay: Neural organoid viability (calcein AM / ethidium homodimer) after cellulase; assay type: cell-based, human; details: 0.5 wt % cellulase treatment over time
Experimental: To characterize viability, organoids were submerged in a solution consisting of DPBS supplemented with 2 μM calcein AM and 4 µM ethidium homodimer for 20 min at 37° C. The samples were washed with DPBS and imaged with an epifluorescent microscope (Leica Microsystems, THUNDER Imager 3D Cell Culture) and confocal microscope (Leica SPE).

[3] = Cellulase-mediated removal of residual CNF on extracted neural organoids; details: 0.5 wt % cellulase, over 72 hours
Experimental: To characterize cellulase-mediated CNF degradation after neural organoid release from the support scaffold, neural organoids were first cultured in 0.5 wt % CNF support bath for 1 day and released through diluting the support bath with DPBS. A 0.5 wt % cellulase (Sigma) solution, made up in neural medium, was filtered through a 0.22 μm filter, warmed to 37° C., and added to the organoids with daily medium changes. Organoids were imaged every day with an epifluorescent microscope (Leica Microsystems, THUNDER Imager 3D Cell Culture). The area of residual CNF on the organoid surface was manually measured with ImageJ (NIH, v.2.3.0/1.53q).

neural organoids [4] = assay: Cleaved caspase-3 immunofluorescence in adjacent neural organoids of the assembloids; assay type: cell-based, human; details: 200 nM panobinostat, neural organoids fused to DIPG organoids
Experimental: Organoids and assembloids were fixed in 4% PFA for 2 hours at 4° C. They were then washed three times with DPBS, for 15 min each, and transferred to a 30% sucrose solution in DPBS for 24-48 hours at 4° C. Once the organoids or assembloids sank in the sucrose solution, they were embedded in a 1:1 mixture of OCT (Fisher Scientific) and 30% sucrose in DPBS. They were then snap frozen on dry ice and stored at −80° C. A cryostat (Leica) was used to cut 50 μm sections for immunostaining.
Cryosections were washed with DPBS to remove excess OCT, then permeabilized with 0.25% Triton X-100 (Thermo Fisher) in DPBS (DPBS-T) for 1 hour and blocked with 5% goat serum (Gibco), 5% bovine serum albumin (BSA, Sigma), and 0.5% Triton X-100 in DPBS for 3 hours, all at RT. Samples were stained with primary antibodies for GFP, (1:200, Invitrogen a11122), cleaved caspase-3 (1:400, Cell Signaling 9661), and histone H3 mutated K27M (1:400, Abcam ab190631). Primary antibodies were diluted in 2.5% goat serum, 2.5% BSA, and 0.5% Triton X-100 in DPBS and incubated with the samples overnight at 4° C., Next, the samples were washed with DPBS-T (3×30 min, RT) and incubated with secondary antibody Alexa Fluor 488 (1:500, Invitrogen, A-11034) and 4′,6-diamidino-2-phenylindole (DAPI, 5 mg/mL stock, 1:2000, Invitrogen) in the same antibody dilution solution overnight at 4° C. […]

With cellulase the “viscosity and storage modulus of CNF support after cellulase” value [1] was “stepwise decreases in both viscosity and storage modulus”, the organoid viability (neural organoids [2]) was “does not affect organoid viability” and the “residual CNF removed from organoid surface” value [3] was “over 98%”.
With `Cc1[nH]c2ccccc2c1CCNCc1ccc(/C=C/C(=O)NO)cc1` [panobinostat] the “cleaved caspase-3 expression (apoptosis) in adjacent neural organoids” value (neural organoids [4]) was “did not exhibit substantially increased cleaved caspase-3 expression” and the “cleaved caspase-3 expression (apoptosis) in adjacent neural organoids” value (neural organoids [4]; listed as Panobinostat) was “does not induce substantial apoptosis”.
